Test results as given in patent publication US7612200B2, “Inhibitors of protein kinases” (Locus Pharmaceuticals, Inc., priority 2004, dated 2009).

How the values were obtained:
Format in all cases: biochemical
[1] = biological target: Akt1 (Homo sapiens, UniProt P31749); assay: Kinase activity at ATP Km,app, Akt1; conditions: compound 2 μM
[2] = biological target: MAPKAP-K2 (Homo sapiens, UniProt P49137); assay: Kinase activity at ATP Km,app, MAPKAP-K2; conditions: 40 min, compound 2 μM
Experimental: (§1) MAPKAP-K2 Kinase Activity: In a final reaction volume of 25 μl, MAPKAP-K2 (h) (5-10 mU) is incubated with 50 mM Na-β-glycerophosphate pH 7.5, 0.1 mM EGTA, 30 mM KKLNRTLSVA, 10 mM MgAcetate and [γ-^33P-ATP] (specific activity approx. 500 cpm/pmol, concentration as required). The reaction is initiated by the addition of the MgATP mix. After incubation for 40 minutes at room temperature, the reaction is stopped by the addition of 5 μl of a 3% phosphoric acid solution. 10 μl of the reaction is then spotted onto a P30 filtermat and washed three times for 5 minutes in 75 mM phosphoric acid and once in methanol prior to drying and scintillation counting.

[3] = biological target: LynA (Homo sapiens, UniProt P07948); assay: Kinase activity at ATP Km,app, LynA; conditions: 40 min, compound 2 μM
LynA, sequence (P07948 whole entry): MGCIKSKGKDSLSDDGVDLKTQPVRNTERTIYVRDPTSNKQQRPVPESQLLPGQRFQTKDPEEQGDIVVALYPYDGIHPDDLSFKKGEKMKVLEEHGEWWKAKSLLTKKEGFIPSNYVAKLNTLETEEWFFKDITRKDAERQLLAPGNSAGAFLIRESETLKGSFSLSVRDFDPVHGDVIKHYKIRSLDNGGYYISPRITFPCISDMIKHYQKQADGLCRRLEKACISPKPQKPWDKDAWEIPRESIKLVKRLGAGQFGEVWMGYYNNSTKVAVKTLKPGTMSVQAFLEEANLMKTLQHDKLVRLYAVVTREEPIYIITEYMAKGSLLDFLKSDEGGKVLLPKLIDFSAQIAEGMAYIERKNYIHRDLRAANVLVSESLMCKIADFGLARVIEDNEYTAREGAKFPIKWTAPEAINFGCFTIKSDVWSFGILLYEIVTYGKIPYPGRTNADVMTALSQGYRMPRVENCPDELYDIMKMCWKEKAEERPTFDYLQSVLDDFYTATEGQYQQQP
Experimental: as §1, with “Lyn” for “MAPKAP-K2”, “Tris” for “Na-β-glycerophosphate”, “0.1” for “30”, “Na3VO4, 0.1% β-mercaptoethanol, 0.1 mg/ml poly(Glue, Tyr) 4:1,” for “KKLNRTLSVA,”, “Filtermat A” for “P30 filtermat”

[4] = biological target: CK2-alpha 1 (Homo sapiens, UniProt P68400); assay: Kinase activity at ATP Km,app, CK2-alpha 1; conditions: compound 2 μM
CK2-alpha 1, sequence (P68400 whole entry): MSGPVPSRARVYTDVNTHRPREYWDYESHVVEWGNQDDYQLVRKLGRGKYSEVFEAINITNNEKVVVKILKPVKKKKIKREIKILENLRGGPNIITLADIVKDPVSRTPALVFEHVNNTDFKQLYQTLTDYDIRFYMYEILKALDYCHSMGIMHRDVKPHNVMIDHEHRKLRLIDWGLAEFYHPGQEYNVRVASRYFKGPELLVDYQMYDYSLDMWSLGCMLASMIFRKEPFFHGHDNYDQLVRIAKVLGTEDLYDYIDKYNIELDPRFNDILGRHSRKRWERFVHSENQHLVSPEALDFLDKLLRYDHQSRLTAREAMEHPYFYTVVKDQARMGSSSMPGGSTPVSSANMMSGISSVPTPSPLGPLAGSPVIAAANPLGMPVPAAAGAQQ

[5] = biological target: T1, Flt3 (Homo sapiens, UniProt P36888); assay: Kinase activity at ATP Km,app, Flt3; conditions: 40 min, compound 2 μM
T1 sequence (P36888 27-993): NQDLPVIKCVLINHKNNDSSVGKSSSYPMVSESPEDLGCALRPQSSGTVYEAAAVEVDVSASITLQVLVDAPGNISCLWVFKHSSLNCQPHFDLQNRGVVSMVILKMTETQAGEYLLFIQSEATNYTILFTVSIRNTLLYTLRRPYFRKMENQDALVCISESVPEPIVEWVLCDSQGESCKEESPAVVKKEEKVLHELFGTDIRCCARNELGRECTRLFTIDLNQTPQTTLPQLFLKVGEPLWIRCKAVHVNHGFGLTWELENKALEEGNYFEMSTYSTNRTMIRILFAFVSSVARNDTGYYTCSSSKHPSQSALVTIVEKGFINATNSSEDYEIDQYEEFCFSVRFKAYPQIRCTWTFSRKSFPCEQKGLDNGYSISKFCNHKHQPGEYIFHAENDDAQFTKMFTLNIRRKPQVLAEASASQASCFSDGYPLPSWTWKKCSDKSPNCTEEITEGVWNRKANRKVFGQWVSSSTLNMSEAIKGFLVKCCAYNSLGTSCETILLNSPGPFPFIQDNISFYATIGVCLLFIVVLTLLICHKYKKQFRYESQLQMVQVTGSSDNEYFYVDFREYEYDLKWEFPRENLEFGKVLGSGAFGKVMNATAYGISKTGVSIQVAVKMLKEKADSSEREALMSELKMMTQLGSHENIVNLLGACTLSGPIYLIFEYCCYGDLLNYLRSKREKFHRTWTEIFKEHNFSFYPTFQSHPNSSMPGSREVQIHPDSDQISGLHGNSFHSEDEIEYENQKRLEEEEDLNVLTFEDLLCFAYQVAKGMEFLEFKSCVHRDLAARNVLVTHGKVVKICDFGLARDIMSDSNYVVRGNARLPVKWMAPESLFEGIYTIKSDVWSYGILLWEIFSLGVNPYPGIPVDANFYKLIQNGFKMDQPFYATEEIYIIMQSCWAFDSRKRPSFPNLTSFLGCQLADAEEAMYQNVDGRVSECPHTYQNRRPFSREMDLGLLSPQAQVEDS
Experimental: Flt3 Kinase Activity: In a final reaction volume of 25 μl, Flt3 (h) (5-10 mU) is incubated with 8 mM MOPS pH 7.0, 0.2 mM EDTA, 50 μM EAIYAAPFAKKK, 10 mM MgAcetate and [γ-^33P-ATP] (specific activity approx. 500 cpm/pmol, concentration as required). The reaction is initiated by the addition of the MgATP mix. After incubation for 40 minutes at room temperature, the reaction is stopped by the addition of […] of a 3% phosphoric acid solution. […] of the reaction is then spotted onto a P30 filtermat and washed three times for 5 minutes in 75 mM phosphoric acid and once in methanol prior to drying and scintillation counting.

[6] = biological target: Src (Homo sapiens, UniProt P12931); assay: Kinase activity at ATP Km,app, Src; conditions: 40 min, compound 2 μM
Src, sequence (P12931 whole entry): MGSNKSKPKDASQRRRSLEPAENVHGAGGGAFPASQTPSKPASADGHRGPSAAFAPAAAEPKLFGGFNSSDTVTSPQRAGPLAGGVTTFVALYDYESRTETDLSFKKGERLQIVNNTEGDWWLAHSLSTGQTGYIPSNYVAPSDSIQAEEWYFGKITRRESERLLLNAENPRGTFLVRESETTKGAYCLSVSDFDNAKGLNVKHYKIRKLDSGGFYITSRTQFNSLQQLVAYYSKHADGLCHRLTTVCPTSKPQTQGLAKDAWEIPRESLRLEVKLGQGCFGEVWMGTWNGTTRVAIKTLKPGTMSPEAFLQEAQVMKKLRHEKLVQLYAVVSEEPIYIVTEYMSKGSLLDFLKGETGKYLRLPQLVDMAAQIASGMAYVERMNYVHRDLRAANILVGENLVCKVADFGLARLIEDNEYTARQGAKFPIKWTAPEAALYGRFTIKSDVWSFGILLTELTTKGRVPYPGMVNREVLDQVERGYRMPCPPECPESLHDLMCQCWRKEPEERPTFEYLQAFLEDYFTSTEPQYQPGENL
Experimental: cSRC Kinase Activity: In a final reaction volume of 25 μl, cSRC (h) (5-'0 mU) is incubated with 8 mM MOPS pH 7.0, 0.2 mM EDTA, 250 μM KVEKIGEGTYGVVYK (Cdc2 peptide), 10 mM MgAcetate and [γ-^33P-ATP] (specific activity approx. 500 cpm/pmol, concentratin as required). The reaction is initiated by the addition of the MgATP mix. After incubation for 40 minutes at room temperature, the reaction is stopped by the addition of 5 μl of a 3% phosphoric acid solution. 10 μl of the reaction is then spotted onto a P30 filtermat and washed three times for 5 minutes in 75 mM phosphoric acid and once in methanol prior to drying and scintillation counting.

[7] = biological target: GSK3-beta (Homo sapiens, UniProt P49841); assay: Kinase activity at ATP Km,app, GSK3-beta; conditions: 40 min, compound 2 μM
GSK3-beta, sequence (P49841 whole entry): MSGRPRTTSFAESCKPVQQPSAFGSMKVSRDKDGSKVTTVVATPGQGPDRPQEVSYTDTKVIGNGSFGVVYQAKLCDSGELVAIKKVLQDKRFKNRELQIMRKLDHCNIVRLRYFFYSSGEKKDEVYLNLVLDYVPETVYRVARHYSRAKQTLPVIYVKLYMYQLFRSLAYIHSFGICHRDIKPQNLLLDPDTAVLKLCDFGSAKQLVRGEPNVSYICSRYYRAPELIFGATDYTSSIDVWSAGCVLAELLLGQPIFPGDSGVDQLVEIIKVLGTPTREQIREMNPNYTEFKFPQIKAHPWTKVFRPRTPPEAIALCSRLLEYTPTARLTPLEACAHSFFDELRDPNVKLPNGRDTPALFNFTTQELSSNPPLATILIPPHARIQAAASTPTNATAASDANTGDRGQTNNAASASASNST
Experimental: GSK3β Kinase Activity: In a final reaction volume of 25 μl, GSK3β (h) (5-10 mU) is incubated with […] MOPS pH 7.0, 0.2 mM EDTA, […](p)EDEEE (phosphor GS2 peptide), 10 mM MgAcetate and [γ-^33P-ATP] (specific activity approx. 500 cpm/pmol, concentration as required). The reaction is initiated by the addition of the MgATP mix. After incubation for 40 minutes at room temperature, the reaction is stopped by the addition of 5 μl of a 3% phosphoric acid solution. 10 μl of the reaction is then spotted onto a P30 filtermat and washed three times for 5 minutes in 50 mM phosphoric acid and once in methanol prior to drying and scintillation counting.

Akt1, sequence (P31749 whole entry, species assumed): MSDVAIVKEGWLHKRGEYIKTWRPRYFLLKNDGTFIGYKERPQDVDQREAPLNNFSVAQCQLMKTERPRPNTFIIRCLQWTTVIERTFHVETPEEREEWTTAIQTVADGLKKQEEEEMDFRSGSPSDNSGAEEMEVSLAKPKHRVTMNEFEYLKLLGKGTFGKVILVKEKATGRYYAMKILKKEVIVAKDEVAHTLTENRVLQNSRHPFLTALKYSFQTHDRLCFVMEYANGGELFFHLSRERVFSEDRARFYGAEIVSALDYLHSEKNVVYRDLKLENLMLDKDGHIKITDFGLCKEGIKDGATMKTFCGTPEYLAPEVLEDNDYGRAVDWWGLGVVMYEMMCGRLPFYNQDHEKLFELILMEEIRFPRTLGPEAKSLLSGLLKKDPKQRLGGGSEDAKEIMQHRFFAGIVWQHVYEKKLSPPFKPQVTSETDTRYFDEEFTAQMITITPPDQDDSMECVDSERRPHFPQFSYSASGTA
MAPKAP-K2, sequence (P49137 whole entry): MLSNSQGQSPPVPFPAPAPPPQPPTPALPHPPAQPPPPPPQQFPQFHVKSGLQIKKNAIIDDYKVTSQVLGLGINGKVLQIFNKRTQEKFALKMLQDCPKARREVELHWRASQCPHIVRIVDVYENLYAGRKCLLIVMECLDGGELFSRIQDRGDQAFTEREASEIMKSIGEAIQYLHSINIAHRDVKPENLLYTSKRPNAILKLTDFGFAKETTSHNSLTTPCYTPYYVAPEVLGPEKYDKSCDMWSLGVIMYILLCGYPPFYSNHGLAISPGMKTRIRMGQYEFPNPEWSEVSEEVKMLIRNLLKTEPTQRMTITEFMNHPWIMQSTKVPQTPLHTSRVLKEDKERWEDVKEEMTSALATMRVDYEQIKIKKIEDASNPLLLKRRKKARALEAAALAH

Row | inhibition at 2 µM [1] | inhibition at 2 µM [2] | inhibition at 2 µM [3] | inhibition at 2 µM [4] | inhibition at 2 µM [5] | inhibition at 2 µM [6] | inhibition at 2 µM [7] | SMILES
1 | 0 to 25% | 0 to 25% | 26 to 50% | 0 to 25% | 76 to 100% | 0 to 25% | 0 to 25% | CC(C)(C)c1cc(C(=O)N2CCNS(=O)(=O)CC2)c(NC(=O)Nc2ccc(Oc3ccncc3)cc2)s1 [Example 1, 1-(5-tert-Butyl-3-(1,1-dioxo-1λ^6-[1,2,5]thiadiazepane-5-carbonyl)thiophen-2-yl)-3-(4-(pyridin-4-yloxy)phenyl)urea]
2 | 0 to 25% | 0 to 25% | 26 to 50% | 0 to 25% | 76 to 100% | 0 to 25% | 0 to 25% | CC(C)(C)c1cc(C(=O)N2CCNC(=O)C2)c(NC(=O)Nc2ccc(Oc3ccncc3)cc2)s1 [Example 2, 1-(5-tert-Butyl-3-(3-oxo-piperazine-1-carbonyl)thiophen-2-yl)-3-(4-(pyridin-4-yloxy)phenyl)urea]
3 | 0 to 25% | 0 to 25% | 51 to 76% | 0 to 25% | 76 to 100% | 0 to 25% | 0 to 25% | CC(C)(C)c1cc(C(=O)N2CCNC(=O)CC2)c(NC(=O)Nc2ccc(Oc3ccncc3)cc2)s1 [Example 4, 1-(5-tert-Butyl-3-(5-oxo-[1,4]diazepane-1-carbonyl)thiophen-2-yl)-3-(4-(pyridin-4-yloxy)phenyl)urea]
